Laboratory results: PubChem BioAssay (NCI)
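Cells were grown in 96-well plates and exposed to each compound for 48 hours at five concentrations; endpoints were interpolated linearly between bracketing concentrations, or set to the highest concentration if not reached. GI50 = concentration required for 50% inhibition of growth. The concentration for full growth arrest is given as TGI.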

How the values were obtained:
Test in all cases: growth of human tumour cells (NCI), 48 h; in the data active = GI50 below about 0.43 µM; inactive = the rest
NCI-H23 lung = system: NCI-H23 lung
NCI-H460 lung = system: NCI-H460 lung
NCI-H522 lung = system: NCI-H522 lung
NCI/ADR-RES ovarian = system: NCI/ADR-RES ovarian
OVCAR-3 ovarian = system: OVCAR-3 ovarian
OVCAR-4 ovarian = system: OVCAR-4 ovarian
OVCAR-5 ovarian = system: OVCAR-5 ovarian
OVCAR-8 ovarian = system: OVCAR-8 ovarian
PC-3 prostate = system: PC-3 prostate
RPMI-8226 leukemia = system: RPMI-8226 leukemia
SF-268 CNS = system: SF-268 CNS
SF-295 CNS = system: SF-295 CNS
SF-539 CNS = system: SF-539 CNS
SK-MEL-2 melanoma = system: SK-MEL-2 melanoma
SK-MEL-28 melanoma = system: SK-MEL-28 melanoma
SK-MEL-5 melanoma = system: SK-MEL-5 melanoma
SK-OV-3 ovarian = system: SK-OV-3 ovarian
SN12C renal = system: SN12C renal
SNB-19 CNS = system: SNB-19 CNS
SNB-75 CNS = system: SNB-75 CNS
SR leukemia = system: SR leukemia
SW-620 colon = system: SW-620 colon
T-47D breast = system: T-47D breast
TK-10 renal = system: TK-10 renal
U251 CNS = system: U251 CNS
UACC-257 melanoma = system: UACC-257 melanoma
UACC-62 melanoma = system: UACC-62 melanoma
UO-31 renal = system: UO-31 renal

COc1ccc(C(=O)C2C(C#N)C(C#N)C3C=Cc4ccccc4N32)cc1 (stereo unspecified)
4.08 µM: TGI (SF-539 CNS)
5.57 µM: TGI (SNB-75 CNS)
4.22 µM: TGI (OVCAR-3 ovarian)
19.8 µM: TGI (SK-MEL-5 melanoma)
inactive: GI50 (NCI-H23 lung) 3.62 µM | GI50 (NCI-H460 lung) 0.749 µM | GI50 (NCI-H522 lung) 2.45 µM | GI50 (NCI/ADR-RES ovarian) 0.571 µM | GI50 (OVCAR-3 ovarian) 0.642 µM | GI50 (OVCAR-4 ovarian) 6 µM | GI50 (OVCAR-5 ovarian) 3.43 µM | GI50 (OVCAR-8 ovarian) 3.29 µM | GI50 (PC-3 prostate) 1.45 µM | GI50 (RPMI-8226 leukemia) 3.48 µM | GI50 (SF-268 CNS) 3.92 µM | GI50 (SF-295 CNS) 2.82 µM | GI50 (SF-539 CNS) 1.32 µM | GI50 (SK-MEL-2 melanoma) 7.44 µM | GI50 (SK-MEL-28 melanoma) 3.77 µM | GI50 (SK-MEL-5 melanoma) 3.49 µM | GI50 (SK-OV-3 ovarian) 7.3 µM | GI50 (SN12C renal) 2.5 µM | GI50 (SNB-19 CNS) 3.71 µM | GI50 (SR leukemia) 0.544 µM | GI50 (SW-620 colon) 0.714 µM | GI50 (T-47D breast) 23.9 µM | GI50 (TK-10 renal) > 100 µM | GI50 (U251 CNS) 2.82 µM | GI50 (UACC-257 melanoma) > 100 µM | GI50 (UACC-62 melanoma) 0.781 µM | GI50 (UO-31 renal) 1.95 µM
active: GI50 (SNB-75 CNS) 0.278 µM
> 100 µM: TGI (NCI-H23 lung) | TGI (NCI-H460 lung) | TGI (NCI-H522 lung) | TGI (NCI/ADR-RES ovarian) | TGI (OVCAR-4 ovarian) | TGI (OVCAR-5 ovarian) | TGI (OVCAR-8 ovarian) | TGI (PC-3 prostate) | TGI (RPMI-8226 leukemia) | TGI (SF-268 CNS) | TGI (SF-295 CNS) | TGI (SK-MEL-2 melanoma) | TGI (SK-MEL-28 melanoma) | TGI (SK-OV-3 ovarian) | TGI (SN12C renal) | TGI (SNB-19 CNS) | TGI (SR leukemia) | TGI (SW-620 colon) | TGI (T-47D breast) | TGI (TK-10 renal) | TGI (U251 CNS) | TGI (UACC-257 melanoma) | TGI (UACC-62 melanoma) | TGI (UO-31 renal)
